According to patent publication US20200060276A1, “THIAZOLE COMPOUND AND HERBICIDE” (OAT Agrio Co., Ltd., priority 2017, published 2020):

Key:
Format in all cases: in vivo
[1] = test system: Echinochloa crus-galli (L.) P. Beauv. var. formosensis Ohwi; experiment: Test for Herbicidal Effect in Flooding Treatment (#2), ECHDG at 2-2.5 leaf stage; conditions: for ECHDG (2-2.5L) #2 herbicidal effect (growth inhibition grade): flooding treatment at 2-2.5 leaf stage, dose 0.2 kg/ha, visual observation on day 21; for inhibition at 200 g/ha: Echinochloa crus-galli, 504 h, flooding treatment (#2), ECHDG at 2-2.5 leaf stage, dose of 0.2 kg/ha, day 21, visual observation, read-out: growth inhibition effect
Method in brief: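 Scoring is a visual 0–5 scale of growth inhibition (0 below 10%, 5 at 90% or more or full withering), taken 21 days after treatment in a glasshouse. Dose was 0.2 kg/ha, applied as acetone/Tween 80 aqueous solution onto flooded soil once seedlings reached the 2–2.5 leaf stage.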

[2] = test system: Echinochloa crus-galli (L.) P. Beauv. var. formosensis Ohwi; experiment: Test for Herbicidal Effect in Flooding Treatment (#1), ECHDG; conditions: flooding treatment at seeding, dose 2 kg/ha, visual observation on day 21
Method in brief: (§1)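 Visual scores from 0 (<10% inhibition) to 5 (≥90% or complete withering) were taken 21 days after treatment of glasshouse-grown plants. Seeds were sown in soil flooded for 24 h beforehand, and compound was applied dropwise onto the surface at 2 kg/ha as an acetone solution diluted in water with Tween 80.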

Scirpus juncoides = experiment: Test for Herbicidal Effect in Flooding Treatment (#1), SCIJU; conditions: flooding treatment at seeding, dose 2 kg/ha, visual observation on day 21
Method in brief: as §1

Digitaria ciliaris = experiment: Test for Herbicidal Effect in Soil Treatment (#3); conditions: 504 h, dose of 2 kg/ha, day 21, visual observation, read-out: growth inhibition effect
From the text: 0: Growth inhibition effect is less than 10%. 1: Growth inhibition effect is equal to or greater than 10%, and less than 30%. 2; Growth inhibition effect is equal to or greater than 30%, and less than 50%. 3: Growth inhibition effect equal to or greater than 50%, and less than 70%. 4: Growth inhibition effect is equal to or greater than 70%, and less than 90%. 5: Growth inhibition effect is equal to or greater than 90%, or complete withering is achieved. (#3) Test for Herbicidal Effect in Soil Treatment: Styrol cups each having an opening diameter of 8 cm (about 52 cm^2) were respectively filled with soil (45 ml) which had been passed through a sieve (2 mm). Water (about 115 ml) was added. Thereafter, Digitaria ciliaris was seeded. Each of the compounds of the present invention was dissolved in acetone, and the obtained product was then diluted with water containing Tween 80°. Each of the resultant chemical solutions was dropped on the entire surface of an associated one of treatment sections, so that each section was treated with 1 ml of the respective chemical solution (a dose of 2 kg/ha). After the treatment, the plants were grown in a glasshouse. On day 21, a survey was conducted on the herbicidal activity by visual observation, and evaluation was made according to the following criteria. The herbicidal activity of the following comparative compounds A and B (the compounds disclosed Japanese Unexamined Patent Publication No. 2003-096059) were evaluated.

Cyperus microiria = experiment: Test for Herbicidal Effect in Flooding Treatment (#1), CYMIC; conditions: flooding treatment at seeding, dose 2 kg/ha, visual observation on day 21
Method in brief: as §1

Monochoria vaginalis = experiment: Test for Herbicidal Effect in Flooding Treatment (#1), MONVA; conditions: flooding treatment at seeding, dose 2 kg/ha, visual observation on day 21
Method in brief: as §1

SMILES	ECHDG (2-2.5L) #2 herbicidal effect (growth inhibition grade) [1]	ECHDG #1 herbicidal effect (growth inhibition grade) [2]	SCIJU #1 herbicidal effect (growth inhibition grade) (Scirpus juncoides)	inhibition at 2000 g/ha (Digitaria ciliaris)	CYMIC #1 herbicidal effect (growth inhibition grade) (Cyperus microiria)	inhibition at 200 g/ha [1]	MONVA #1 herbicidal effect (growth inhibition grade) (Monochoria vaginalis)
CCOc1ccc(F)cc1CS(=O)(=O)c1ncc(Cl)s1 [Compound 1C-15]	5 (Growth inhibition effect is equal to or greater than 90%, or complete withering is achieved)	5 (Growth inhibition effect is equal to or greater than 90%, or complete withering is achieved)	5 (Growth inhibition effect is equal to or greater than 90%, or complete withering is achieved)	≥ 50%	5 (Growth inhibition effect is equal to or greater than 90%, or complete withering is achieved)		
CCOc1c(F)cccc1CS(=O)(=O)c1ncc(Cl)s1 [Compound 1C-9]	5 (Growth inhibition effect is equal to or greater than 90%, or complete withering is achieved)	5 (Growth inhibition effect is equal to or greater than 90%, or complete withering is achieved)	5 (Growth inhibition effect is equal to or greater than 90%, or complete withering is achieved)	≥ 50%	5 (Growth inhibition effect is equal to or greater than 90%, or complete withering is achieved)		
O=S(=O)(Cc1c(Cl)cccc1OCC(F)(F)F)c1ncc(Br)s1 [Compound 1C-161, 5-bromo-2-{[2-(2,2,2-trifluoroethoxy)-6-chlorophenyl][methanesulfonyl]}-1,3-thiazole]	5 (Growth inhibition effect is equal to or greater than 90%, or complete withering is achieved)	5 (Growth inhibition effect is equal to or greater than 90%, or complete withering is achieved)	5 (Growth inhibition effect is equal to or greater than 90%, or complete withering is achieved)	≥ 50%			
O=S(=O)(Cc1c(F)cccc1OC(F)F)c1ncc(Cl)s1 [Compound 1C-41, 5-chloro-2-{[2-(difluoromethoxy)-6-fluorophenyl][methanesulfonyl]}-1,3-thiazole]	5 (Growth inhibition effect is equal to or greater than 90%, or complete withering is achieved)	5 (Growth inhibition effect is equal to or greater than 90%, or complete withering is achieved)	5 (Growth inhibition effect is equal to or greater than 90%, or complete withering is achieved)	≥ 90%		≥ 90%	5 (Growth inhibition effect is equal to or greater than 90%, or complete withering is achieved)
CCOc1cc(F)c(F)cc1CS(=O)(=O)c1ncc(Cl)s1 [Compound 1C-29]	5 (Growth inhibition effect is equal to or greater than 90%, or complete withering is achieved)	5 (Growth inhibition effect is equal to or greater than 90%, or complete withering is achieved)	5 (Growth inhibition effect is equal to or greater than 90%, or complete withering is achieved)	≥ 50%	5 (Growth inhibition effect is equal to or greater than 90%, or complete withering is achieved)		5 (Growth inhibition effect is equal to or greater than 90%, or complete withering is achieved)
CCOc1cc(F)c(CS(=O)(=O)c2ncc(Cl)s2)cc1F [Compound 1C-101, 5-chloro-2-[(2,5-difluoro-4-ethoxyphenyl)(methanesulfonyl)]-1,3-thiazole]	5 (Growth inhibition effect is equal to or greater than 90%, or complete withering is achieved)	5 (Growth inhibition effect is equal to or greater than 90%, or complete withering is achieved)	5 (Growth inhibition effect is equal to or greater than 90%, or complete withering is achieved)	≥ 50%	5 (Growth inhibition effect is equal to or greater than 90%, or complete withering is achieved)		5 (Growth inhibition effect is equal to or greater than 90%, or complete withering is achieved)
O=S(=O)(Cc1ccccc1OC(F)F)c1ncc(Cl)s1 [Compound 1C-38]	5 (Growth inhibition effect is equal to or greater than 90%, or complete withering is achieved)	5 (Growth inhibition effect is equal to or greater than 90%, or complete withering is achieved)	5 (Growth inhibition effect is equal to or greater than 90%, or complete withering is achieved)	≥ 90%	5 (Growth inhibition effect is equal to or greater than 90%, or complete withering is achieved)	≥ 90%	5 (Growth inhibition effect is equal to or greater than 90%, or complete withering is achieved)
